Measurements as given in PubChem BioAssay AID2060906 (Molecular Pharmacology Branch, DTP, NCI, 2025).

Test system: 485176-168-R4-J1-PDC complex spheroid growth
Assay: Anticancer human tumor 485176-168-R4-J1-PDC patient-derived pancreatic adenocarcinoma cell line growth inhibition [RAS]
Settings: for IC50: curve of first compound; for viability, T/C: stronger effect = lower value
How it was run: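 Multi-cell-type spheroids: tumor cells plus HUVEC endothelial cells and mesenchymal stem cells. RAS-pathway inhibitors were combined with targeted agents, each dosed in half-log steps down from clinical Cmax, or from 10 microM when Cmax was unknown.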
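Further: spheroids exposed to compounds for seven days before readout.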
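Wherever viability, T/C is given: luminescence viability expressed relative to DMSO vehicle wells set as 100%.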

## CC(C)n1nc(-c2ccc3oc(N)nc3c2)c2c(N)ncnc21 + CCn1c(-c2cccnc2C(C)OC)c2c3cc(ccc31)N1CCOC(CC(NC(=O)C(C(C)C)N(C)C(=O)C3(F)CCN(C(=O)C#CC(C)(C)N(C)C)CC3)C(=O)N3CCCC(N3)C(=O)OCC(C)(C)C2)C1
Second compound 0.000949 µM
  IC50: 22.2 nM
Second compound 0.003 µM
  IC50: 28.6 nM
Second compound 0.00949 µM
  IC50: 21.3 nM
Second compound 0.03 µM
  IC50: 16.6 nM
Second compound 0.0949 µM
  IC50: 17.4 nM
Second compound 0.3 µM
  IC50: 7.54 nM
Second compound 0.000949 µM, first compound 0.000316 µM
  viability, T/C: 104%
Second compound 0.000949 µM, first compound 0.001 µM
  viability, T/C: 81.1%
Second compound 0.000949 µM, first compound 0.00316 µM
  viability, T/C: 93.7%
Second compound 0.000949 µM, first compound 0.01 µM
  viability, T/C: 75.7%
Second compound 0.000949 µM, first compound 0.0316 µM
  viability, T/C: 38.5%
Second compound 0.000949 µM, first compound 0.1 µM
  viability, T/C: 17.7%
Second compound 0.003 µM, first compound 0.000316 µM
  viability, T/C: 82.1%
Second compound 0.003 µM, first compound 0.001 µM
  viability, T/C: 79.9%
Second compound 0.003 µM, first compound 0.00316 µM
  viability, T/C: 85.5%
Second compound 0.003 µM, first compound 0.01 µM
  viability, T/C: 72.5%
Second compound 0.003 µM, first compound 0.0316 µM
  viability, T/C: 48.1%
Second compound 0.003 µM, first compound 0.1 µM
  viability, T/C: 21.4%
Second compound 0.00949 µM, first compound 0.000316 µM
  viability, T/C: 88.1%
Second compound 0.00949 µM, first compound 0.001 µM
  viability, T/C: 89.4%
Second compound 0.00949 µM, first compound 0.00316 µM
  viability, T/C: 84.1%
Second compound 0.00949 µM, first compound 0.01 µM
  viability, T/C: 61.8%
Second compound 0.00949 µM, first compound 0.0316 µM
  viability, T/C: 43.9%
Second compound 0.00949 µM, first compound 0.1 µM
  viability, T/C: 16%
Second compound 0.03 µM, first compound 0.000316 µM
  viability, T/C: 85.5%
Second compound 0.03 µM, first compound 0.001 µM
  viability, T/C: 84.5%
Second compound 0.03 µM, first compound 0.00316 µM
  viability, T/C: 85.7%
Second compound 0.03 µM, first compound 0.01 µM
  viability, T/C: 62.6%
Second compound 0.03 µM, first compound 0.0316 µM
  viability, T/C: 33%
Second compound 0.03 µM, first compound 0.1 µM
  viability, T/C: 18.6%
Second compound 0.0949 µM, first compound 0.000316 µM
  viability, T/C: 90.5%
Second compound 0.0949 µM, first compound 0.001 µM
  viability, T/C: 86.9%
Second compound 0.0949 µM, first compound 0.00316 µM
  viability, T/C: 69%
Second compound 0.0949 µM, first compound 0.01 µM
  viability, T/C: 65%
Second compound 0.0949 µM, first compound 0.0316 µM
  viability, T/C: 36.9%
Second compound 0.0949 µM, first compound 0.1 µM
  viability, T/C: 19.9%
Second compound 0.3 µM, first compound 0.000316 µM
  viability, T/C: 76.9%
Second compound 0.3 µM, first compound 0.001 µM
  viability, T/C: 72.8%
Second compound 0.3 µM, first compound 0.00316 µM
  viability, T/C: 59.3%
Second compound 0.3 µM, first compound 0.01 µM
  viability, T/C: 44.1%
Second compound 0.3 µM, first compound 0.0316 µM
  viability, T/C: 34.1%
Second compound 0.3 µM, first compound 0.1 µM
  viability, T/C: 14.2%

## CCc1c2c(nc3ccc(O)cc13)-c1cc3c(c(=O)n1C2)COC(=O)[C@]3(O)CC + C=CC(=O)N1CCN(c2nc(OCC3CCCN3C)nc3c(F)c(-c4nc(N)cc(C)c4C(F)(F)F)c(Cl)cc23)C(C)C1
Second compound 0.00316 µM
  IC50: 13.3 nM
Second compound 0.01 µM
  IC50: 13.7 nM
Second compound 0.0316 µM
  IC50: 11.1 nM
Second compound 0.1 µM
  IC50: 11.9 nM
Second compound 0.316 µM
  IC50: 16.6 nM
Second compound 1 µM
  IC50: 11.1 nM
Second compound 0.00316 µM, first compound 0.000949 µM
  viability, T/C: 94.2%
Second compound 0.00316 µM, first compound 0.003 µM
  viability, T/C: 79.2%
Second compound 0.00316 µM, first compound 0.00949 µM
  viability, T/C: 58.4%
Second compound 0.00316 µM, first compound 0.03 µM
  viability, T/C: 31.9%
Second compound 0.00316 µM, first compound 0.0949 µM
  viability, T/C: 13.9%
Second compound 0.00316 µM, first compound 0.3 µM
  viability, T/C: 6.54%
Second compound 0.01 µM, first compound 0.000949 µM
  viability, T/C: 94%
Second compound 0.01 µM, first compound 0.003 µM
  viability, T/C: 82.6%
Second compound 0.01 µM, first compound 0.00949 µM
  viability, T/C: 60.6%
Second compound 0.01 µM, first compound 0.03 µM
  viability, T/C: 28.8%
Second compound 0.01 µM, first compound 0.0949 µM
  viability, T/C: 12.5%
Second compound 0.01 µM, first compound 0.3 µM
  viability, T/C: 6.49%
Second compound 0.0316 µM, first compound 0.000949 µM
  viability, T/C: 84.8%
Second compound 0.0316 µM, first compound 0.003 µM
  viability, T/C: 97.8%
Second compound 0.0316 µM, first compound 0.00949 µM
  viability, T/C: 47.5%
Second compound 0.0316 µM, first compound 0.03 µM
  viability, T/C: 27.8%
Second compound 0.0316 µM, first compound 0.0949 µM
  viability, T/C: 10.9%
Second compound 0.0316 µM, first compound 0.3 µM
  viability, T/C: 4.77%
Second compound 0.1 µM, first compound 0.000949 µM
  viability, T/C: 81.3%
Second compound 0.1 µM, first compound 0.003 µM
  viability, T/C: 70.1%
Second compound 0.1 µM, first compound 0.00949 µM
  viability, T/C: 54.1%
Second compound 0.1 µM, first compound 0.03 µM
  viability, T/C: 34.5%
Second compound 0.1 µM, first compound 0.0949 µM
  viability, T/C: 11.2%
Second compound 0.1 µM, first compound 0.3 µM
  viability, T/C: 6.91%
Second compound 0.316 µM, first compound 0.000949 µM
  viability, T/C: 92.8%
Second compound 0.316 µM, first compound 0.003 µM
  viability, T/C: 82.4%
Second compound 0.316 µM, first compound 0.00949 µM
  viability, T/C: 71.8%
Second compound 0.316 µM, first compound 0.03 µM
  viability, T/C: 27%
Second compound 0.316 µM, first compound 0.0949 µM
  viability, T/C: 14%
Second compound 0.316 µM, first compound 0.3 µM
  viability, T/C: 5.42%
Second compound 1 µM, first compound 0.000949 µM
  viability, T/C: 95.9%
Second compound 1 µM, first compound 0.003 µM
  viability, T/C: 75%
Second compound 1 µM, first compound 0.00949 µM
  viability, T/C: 58.7%
Second compound 1 µM, first compound 0.03 µM
  viability, T/C: 22.7%
Second compound 1 µM, first compound 0.0949 µM
  viability, T/C: 10.5%
Second compound 1 µM, first compound 0.3 µM
  viability, T/C: 6.39%
